For 13 compounds, IC50 results are on record in ChEMBL document CHEMBL1148630, “Conformationally biased P3 amide replacements of beta-secretase inhibitors” (Bioorg Med Chem Lett, 2006).

SMILES strings stand for the structures.

As a reminder, the IC50 is the concentration that gives 50% inhibition. A high value points to lower potency.

Sequence of Beta-secretase 1 (P56817 whole entry): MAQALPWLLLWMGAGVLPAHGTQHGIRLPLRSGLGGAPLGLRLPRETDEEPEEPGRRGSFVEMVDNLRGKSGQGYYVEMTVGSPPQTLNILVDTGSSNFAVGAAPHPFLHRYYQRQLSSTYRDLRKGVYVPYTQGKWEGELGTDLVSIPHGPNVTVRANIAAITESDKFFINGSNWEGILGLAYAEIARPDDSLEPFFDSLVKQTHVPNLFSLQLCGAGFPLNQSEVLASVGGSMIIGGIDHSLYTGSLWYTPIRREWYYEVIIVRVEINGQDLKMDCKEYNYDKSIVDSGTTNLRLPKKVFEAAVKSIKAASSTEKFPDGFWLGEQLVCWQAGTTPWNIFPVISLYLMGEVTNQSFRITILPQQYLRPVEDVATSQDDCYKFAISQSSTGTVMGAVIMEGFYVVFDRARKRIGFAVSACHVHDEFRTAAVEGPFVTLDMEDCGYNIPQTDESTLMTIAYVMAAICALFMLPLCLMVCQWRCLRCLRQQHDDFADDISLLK

This test addresses Beta-secretase 1 (Homo sapiens, UniProt P56817).
Description: Inhibition of BACE1 activity
Turning to `CN(c1cc(C(=O)N[C@@H](Cc2ccccc2)[C@H](O)CNC2CC2)cc(C(O)c2ccccc2)c1)S(C)(=O)=O` (stereo partly drawn), 5.9 µM corresponded to half-maximal inhibition (IC50). Regarding `CN(c1cc(CCC2CC2)cc(C(=O)N[C@@H](Cc2ccccc2)[C@H](O)CNC2CC2)c1)S(C)(=O)=O`, it took 0.42 µM to reach half-maximal inhibition (IC50).

In the case of `CN(c1cc(Cc2ccccc2)cc(C(=O)N[C@@H](Cc2ccccc2)[C@H](O)CNC2CC2)c1)S(C)(=O)=O`, the 50% inhibitory concentration (IC50) was 4.63 µM. As for `CN(c1cc(/C=C/C2CC2)cc(C(=O)N[C@@H](Cc2ccccc2)[C@H](O)CNC2CC2)c1)S(C)(=O)=O`, the figure is 0.73 µM. Consider `CC(C)C(=O)c1cc(C(=O)N[C@@H](Cc2ccccc2)[C@H](O)CNC2CC2)cc(N(C)S(C)(=O)=O)c1`, for which the IC50 was found to be 0.24 µM.

In turn, `CN(c1cc(C(=O)Cc2ccccc2)cc(C(=O)N[C@@H](Cc2ccccc2)[C@H](O)CNC2CC2)c1)S(C)(=O)=O` gave an IC50 of 1.4 µM. In turn, `C=C(c1ccccc1)c1cc(C(=O)N[C@@H](Cc2ccccc2)[C@H](O)CNC2CC2)cc(N(C)S(C)(=O)=O)c1` returned an IC50 of 1.3 µM. `CN(c1cc(C(=O)N[C@@H](Cc2ccccc2)[C@H](O)CNC2CC2)cc(C(O)Cc2ccccc2)c1)S(C)(=O)=O` (stereo partly drawn) yielded an IC50 of 5.5 µM.

In turn, `CN(c1cc(C(=O)N[C@@H](Cc2ccccc2)[C@H](O)CNC2CC2)cc(C(=O)C2CCCC2)c1)S(C)(=O)=O` showed a concentration for half-maximal inhibition (IC50) of 0.18 µM. The same measure for `CNC(=O)c1cc(C(=O)N[C@@H](Cc2ccccc2)[C@H](O)CNC2CC2)cc(N(C)S(C)(=O)=O)c1`: 0.98 µM. The same measure for `CCC(=O)c1cc(C(=O)N[C@@H](Cc2ccccc2)[C@H](O)CNC2CC2)cc(N(C)S(C)(=O)=O)c1`: 1.5 µM; for `CN(c1cc(/C=C\C2CC2)cc(C(=O)N[C@@H](Cc2ccccc2)[C@H](O)CNC2CC2)c1)S(C)(=O)=O`: 0.035 µM. As for `CN(c1cc(C(=O)N[C@@H](Cc2ccccc2)[C@H](O)CNC2CC2)cc(C(=O)C2CCCCC2)c1)S(C)(=O)=O`, the figure is 0.45 µM.
